Among the data in patent US10273221B2, “Microbiocidal heterobicyclic derivatives” (Syngenta Participations AG, priority 2015, dated 2019) are inhibition of growth and melting point values, retold here.

One data set has as its system Pyrenophora teres. Put plainly: Pyrenophora teres / liquid culture (net blotch). Format: cell-based. The conditions noted are these: growth inhibition determined photometrically 3-4 days after application, vs untreated control.
Data set [1] concerns Glomerella lagenarium (Colletotrichum lagenarium). Put plainly: Glomerella lagenarium (Colletotrichum lagenarium) / liquid culture (anthracnose). Format: cell-based. The conditions noted are these: Colletotrichum orbiculare, growth inhibition measured photometrically 3-4 days after application, vs untreated control, read-out: disease control.
Data set [2] concerns Botryotinia fuckeliana (Botrytis cinerea). Put plainly: Botryotinia fuckeliana (Botrytis cinerea) / liquid culture (gray mould). It is filed as cell-based. The conditions noted are these: growth inhibition determined photometrically 3-4 days after application, vs untreated control, read-out: disease control.
The test system of data set [3] is Magnaporthe grisea (Pyricularia oryzae). Put plainly: microbe, parasite or virus in culture. The conditions noted are these: 72 h, read-out: control of Magnaporthe grisea. It is filed as cell-based.
A further data set relates to Fusarium culmorum. Put plainly: microbe, parasite or virus in culture. It is filed as cell-based. Particulars: 72 h, read-out: disease control.
The test system of data set [4] is Monographella nivalis (Microdochium nivale). Put plainly: Monographella nivalis (Microdochium nivale) / liquid culture (foot rot cereals). Format: cell-based. Particulars: 96 h, growth inhibition determined photometrically 4-5 days after application, vs untreated control, read-out: disease control.
In the next data set the test system is Sclerotinia sclerotiorum. Put plainly: Sclerotinia sclerotiorum / liquid culture (cottony rot). Particulars: 72 h, read-out: control of Sclerotinia sclerotiorum.
A further data set has as its system Gaeumannomyces graminis. Put plainly: Gaeumannomyces graminis / liquid culture (take-all of cereals). Format: cell-based. The conditions noted are these: growth inhibition determined photometrically 4-5 days after application, vs untreated control, read-out: disease control.
In data set [5] the test system is Mycosphaerella graminicola (Septoria tritici). Put plainly: Mycosphaerella graminicola (Septoria tritici) / liquid culture (Septoria blotch). It is filed as cell-based. The conditions noted are these: Zymoseptoria tritici, 96 h, growth inhibition determined photometrically 4-5 days after application, vs untreated control, read-out: disease control.

Description for Sclerotinia sclerotiorum: Sclerotinia sclerotiorum/Liquid Culture (Cottony Rot)
Mycelia fragments of a newly grown liquid culture of the fungus are directly mixed into nutrient broth (Vogels broth). After placing a (DMSO) solution of test compound into a microtiter plate (96-well format) the nutrient broth containing the fungal material is added. The test plates are incubated at 24° C. and the inhibition of growth is determined photometrically 3-4 days after application.

As a reminder, the melting point is the temperature, or range, at which the solid turns liquid. On to `CC1(C)N=C(n2cnc3c(Cl)cccc32)c2cccc(F)c2C1(C)C` [E-17], for which the melting point fell in the range of 50 to 51 °C. For the same compound, the inhibition of growth at 20 ppm in the data set on Pyrenophora teres was at least 80%. Besides, the inhibition of growth at 200 ppm in data set [1] was at least 80%. In addition, the inhibition of growth at 200 ppm in data set [2] is at least 80%. Moreover, the inhibition of growth at 20 ppm in [3] is at least 80%. Besides, in the data set with Fusarium culmorum, the inhibition of growth at 200 ppm is at least 80%. Further, the inhibition of growth at 200 ppm in [4] is at least 80%. The inhibition of growth at 20 ppm with Sclerotinia sclerotiorum was at least 80%. Besides, the inhibition of growth at 200 ppm in the data set on Gaeumannomyces graminis is at least 80%.
Take `Cc1cccc2c1C(=O)C(C)(C)N=C2n1cnc2c(C)cccc21` [E-26]: the melting point lay in the range of 96 to 101 °C. The inhibition of growth at 20 ppm in the data set with Pyrenophora teres was at least 80%. Besides, the inhibition of growth at 200 ppm in data set [1] was at least 80%. Moreover, the inhibition of growth at 200 ppm in data set [2] is at least 80%. In addition, in data set [3], the inhibition of growth at 20 ppm is at least 80%. Also, in the data set with Fusarium culmorum, the inhibition of growth at 200 ppm is at least 80%. In addition, the inhibition of growth at 200 ppm in data set [4] is at least 80%. The inhibition of growth at 20 ppm in the data set on Sclerotinia sclerotiorum is at least 80%.
With `Cc1cccc2c1ncn2C1=NC(C)(C)C2(CC2)c2ccccc21` [E-9], the inhibition of growth at 20 ppm (with Pyrenophora teres; in [3]) was at least 80% each time. The inhibition of growth at 200 ppm (in [1]; in data set [2]; in the data set with Fusarium culmorum; in data set [4]; in the data set with Gaeumannomyces graminis) was at least 80% in each case.
Take `Cc1ccc2c(ncn2C2=NC(C)(C)C(F)(F)c3c(F)cccc32)c1C` [E-19]: the inhibition of growth at 20 ppm (with Pyrenophora teres; in [3]; with Sclerotinia sclerotiorum) was at least 80% in each case. In addition, the inhibition of growth at 200 ppm (in data set [1]; in data set [2]; with Fusarium culmorum; in [4]; with Gaeumannomyces graminis) was at least 80% in each case.
Compound `CC1(C)N=C(n2cnc3c(Br)cccc32)c2cccc(F)c2C1(C)C` [E-4] gave a melting point of 48 to 49 °C. In the data set on Pyrenophora teres, this compound returned an inhibition of growth at 20 ppm of at least 80%. In [1], the inhibition of growth at 200 ppm was at least 80%. Moreover, the inhibition of growth at 200 ppm in data set [2] was at least 80%. In data set [3], the inhibition of growth at 20 ppm was at least 80%. Besides, the inhibition of growth at 200 ppm with Fusarium culmorum is at least 80%. The inhibition of growth at 200 ppm in data set [4] is at least 80%. Further, the inhibition of growth at 200 ppm with Gaeumannomyces graminis is at least 80%.
Consider `Cc1cccc2c1ncn2C1=NCC2(CCCC2)c2ccccc21` [E-53], for which the inhibition of growth at 200 ppm in data set [2], in [5] and in data set [4] was at least 80% throughout. Besides, in [3], the inhibition of growth at 20 ppm was at least 80%.
In turn, `CCc1cccc2c1ncn2C1=NC(C)(C)C(C)(C)c2c(F)cccc21` [E-14] had a melting point of 87 to 88 °C. This compound also displayed an inhibition of growth at 20 ppm in the data set on Pyrenophora teres of at least 80%. Besides, in data set [1], the inhibition of growth at 200 ppm was at least 80%. Besides, the inhibition of growth at 200 ppm in data set [2] was at least 80%. Moreover, the inhibition of growth at 20 ppm in [3] was at least 80%. In addition, in the data set on Fusarium culmorum, the inhibition of growth at 200 ppm is at least 80%. Further, the inhibition of growth at 200 ppm in [4] was at least 80%. The inhibition of growth at 200 ppm in the data set on Gaeumannomyces graminis was at least 80%.
The compound `CC(C)c1cccc2c1ncn2C1=NC(C)(C)C(C)(C)c2c(F)cccc21` [E-12] displayed a melting point of 113 to 114 °C. The compound further returned an inhibition of growth at 20 ppm with Pyrenophora teres of at least 80%. Further, in [1], the inhibition of growth at 200 ppm is at least 80%. The inhibition of growth at 200 ppm in [2] was at least 80%. The inhibition of growth at 20 ppm in data set [3] is at least 80%. Moreover, the inhibition of growth at 200 ppm in [4] is at least 80%.
For the compound `Cc1c(F)ccc2c1ncn2C1=NC(C)(C)C(=O)c2cc(Cl)ccc21` [E-35], the melting point was in the range of 133 to 136 °C. Further, in [2], the inhibition of growth at 200 ppm is at least 80%. In data set [3], the inhibition of growth at 20 ppm is at least 80%. For the same compound, the inhibition of growth at 200 ppm in the data set with Fusarium culmorum is at least 80%. Besides, the inhibition of growth at 200 ppm in data set [5] is at least 80%.
`Cc1ccc2c(ncn2C2=NC(C)(C)C(F)(F)c3cc(F)ccc32)c1C` [E-56]: the inhibition of growth at 200 ppm (in [1]; in data set [2]; with Fusarium culmorum; in data set [5]; in data set [4]) was at least 80% each time. The inhibition of growth at 20 ppm (in [3]; with Sclerotinia sclerotiorum) was at least 80% throughout.
Take `C=Cc1cccc2c1ncn2C1=NC(C)(C)C(C)(C)c2c(F)cccc21` [E-13]: the melting point lay in the range of 70 to 71 °C. This compound registered an inhibition of growth at 20 ppm in the data set on Pyrenophora teres of at least 80%. In data set [1], the inhibition of growth at 200 ppm is at least 80%. In data set [2], the inhibition of growth at 200 ppm is at least 80%. For the same compound, the inhibition of growth at 20 ppm in [3] is at least 80%. For the same compound, the inhibition of growth at 200 ppm in [4] is at least 80%.
Compound `Cc1ccc2c(ncn2C2=NC(C)(C)C(=O)c3ccccc32)c1C` [E-25] showed a melting point of 159 to 161 °C. Moreover, the inhibition of growth at 20 ppm in the data set on Pyrenophora teres was at least 80%. The inhibition of growth at 200 ppm in data set [1] was at least 80%. Also, the inhibition of growth at 200 ppm in data set [2] was at least 80%. In addition, in [3], the inhibition of growth at 20 ppm was at least 80%. The inhibition of growth at 200 ppm with Fusarium culmorum was at least 80%. Moreover, in data set [4], the inhibition of growth at 200 ppm is at least 80%. Further, the inhibition of growth at 20 ppm in the data set on Sclerotinia sclerotiorum is at least 80%.
Consider `CC1(C)N=C(n2cnc3c(F)cccc32)c2cccc(F)c2C1(C)C` [E-7], for which the inhibition of growth at 20 ppm (with Pyrenophora teres; in data set [3]) was at least 80% each time. In addition, the inhibition of growth at 200 ppm (in data set [1]; in [2]; in the data set with Fusarium culmorum; in data set [4]; in the data set on Gaeumannomyces graminis) was at least 80% throughout.
With `Cc1cccc2c1ncn2C1=NC(C)(C)C(F)(F)c2ccccc21` [E-15], the inhibition of growth at 20 ppm (in the data set with Pyrenophora teres; in data set [3]; with Sclerotinia sclerotiorum) was at least 80% in each case. The inhibition of growth at 200 ppm (in [1]; in data set [2]; with Fusarium culmorum; in [4]; in the data set with Gaeumannomyces graminis) was at least 80% throughout.
As to `Cc1ccc2c(ncn2C2=NC(C)(C)C(F)(F)c3ccccc32)c1C` [E-23], the inhibition of growth at 20 ppm (with Pyrenophora teres; in data set [3]; in the data set on Sclerotinia sclerotiorum) was at least 80% in each case. Further, the inhibition of growth at 200 ppm (in data set [1]; in [2]; with Fusarium culmorum; in data set [4]; in the data set on Gaeumannomyces graminis) was at least 80% throughout.
Take `Cc1cccc2c1C(=O)C(C)(C)N=C2n1cnc2c(C)c(C)ccc21` [E-27]: the melting point was 145 to 149 °C. This compound also gave an inhibition of growth at 20 ppm with Pyrenophora teres of at least 80%. The inhibition of growth at 200 ppm in data set [1] is at least 80%. In data set [2], the inhibition of growth at 200 ppm was at least 80%. Besides, the inhibition of growth at 20 ppm in data set [3] is at least 80%. The inhibition of growth at 200 ppm in the data set on Fusarium culmorum is at least 80%. Also, the inhibition of growth at 200 ppm in [4] was at least 80%. Besides, the inhibition of growth at 20 ppm in the data set with Sclerotinia sclerotiorum is at least 80%.
On to `Cc1cccc2c1ncn2C1=NC(C)(C)C(F)(F)c2c(F)cccc21` [E-20], for which the inhibition of growth at 20 ppm (with Pyrenophora teres; in [3]; in the data set on Sclerotinia sclerotiorum) was at least 80% each time. Besides, the inhibition of growth at 200 ppm (in data set [1]; in data set [2]; in the data set with Fusarium culmorum; in [4]) was at least 80% each time.
`Cc1cccc2c1ncn2C1=NC(C)(C)C(=O)c2ccccc21` [E-10] displayed a melting point of 123 to 125 °C. This compound also returned an inhibition of growth at 20 ppm in the data set with Pyrenophora teres of at least 80%. Further, the inhibition of growth at 200 ppm in [1] is at least 80%. The inhibition of growth at 200 ppm in data set [2] is at least 80%. In data set [3], the inhibition of growth at 20 ppm is at least 80%. The inhibition of growth at 200 ppm in [4] is at least 80%.
As to `COc1cccc2c1ncn2C1=NC(C)(C)C(C)(C)c2c(F)cccc21` [E-6], the inhibition of growth at 20 ppm (with Pyrenophora teres; in data set [3]) was at least 80% in each case. Further, the inhibition of growth at 200 ppm in data set [1], in data set [2] and in data set [4] was at least 80% in each case.
As to `Cc1ccc2c(ncn2C2=NC(C)(C)C(=O)c3cc(Cl)ccc32)c1C` [E-36], the melting point is 196 to 199 °C. In addition, the inhibition of growth at 200 ppm in data set [2] is at least 80%. In addition, in [3], the inhibition of growth at 20 ppm is at least 80%. Further, the inhibition of growth at 200 ppm in the data set with Fusarium culmorum is at least 80%. Besides, the inhibition of growth at 200 ppm in data set [5] is at least 80%.
For the compound `CC1(C)N=C(n2cnc3c4c(ccc32)CCC4)c2ccccc2C1(F)F` [E-55], the inhibition of growth at 200 ppm (in [1]; in data set [2]; in the data set with Fusarium culmorum; in data set [5]; in data set [4]) was at least 80% throughout. The inhibition of growth at 20 ppm (in [3]; in the data set with Sclerotinia sclerotiorum) was at least 80% in each case.
`Cc1cccc2c1ncn2C1=NCC2(CCC2)c2ccccc21` [E-54]: the inhibition of growth at 200 ppm in data set [1], in data set [2], in data set [5] and in data set [4] was at least 80% each time. Further, in data set [3], the inhibition of growth at 20 ppm is at least 80%.
